Measurements from patent US20050054620A1, “Paricalcitol as a chemotherapeutic agent” (priority 2003, published 2005).

Assays:
[1] = test system: NCI-H929 cells; experiment: Western blot of cell lysates; format: cell-based, human
Experimental: Western blot analysis was used to determine the levels of proteins involved in cell cycle and differentiation. […] After centrifugation at 15,000×g for 15 min at 4° C., the suspension was collected. Protein concentrations were quantitated using the Bio-Rad assay (Bio-Rad Labolatories, Hercules, Calif.). […] The blots were developed using the Supersignal West Pico Chemiluminescent Substrate Kit (Pierce, Rockford, Ill.). In FIG. 3C, NCI-H929 cells were treated with either paricalcitol (10^−7M) or 1,25(OH)2D3 (10^−7M) and cell lysates were prepared after 72 hrs. Cell lysates were used for Western blot analysis and probed sequentially with antibodies to p27KIP1, Bcl-2 and Bax. Control cells were treated with vehicle alone. Amount of protein was normalized by comparison to the amount of GAPDH. […] The Bcl-2 and Bax antibodies were obtained from Santa Cruz Biotechnology Inc., Santa Cruz, Calif.

[2] = test system: RPMI-8226 myeloma cells; conditions: 4 days exposure
[3] = humans, cited from earlier work
[4] = test system: HT-29 cells; experiment: Western blot of cell lysates; format: cell-based, human; conditions: 10^−7M, 72 hrs
Experimental: Western blot analysis was used to determine the levels of proteins involved in cell cycle and differentiation. […] After centrifugation at 15,000×g for 15 min at 4° C., the suspension was collected. Protein concentrations were quantitated using the Bio-Rad assay (Bio-Rad Labolatories, Hercules, Calif.). […] The blots were developed using the Supersignal West Pico Chemiluminescent Substrate Kit (Pierce, Rockford, Ill.). In FIG. 4B, HT-29 cells were exposed to either paricalcitol (10^−7M) or 1,25(OH)2D3(10^−7M). Cell lysates were prepared after 72 hrs of culture and analyzed by Western blot. The Western blot was probed sequentially with antibodies for p27KIP1, p21WAF1, cyclin D1, c-myc and E-Cadherin (antibodies from Santa Cruz Biotechnology) as described in Example II. Control cells were treated with vehicle alone. The quantity of protein was normalized by comparison to the amount of GAPDH. In FIG. 4C, HT-29 and SW837 cells were cultured with either paricalcitol (10^−7M) or 1,25(OH)2D3 (10^−7M) for 72 hrs. Cell lysates were prepared and analyzed by Western blot which was probed sequentially with antibodies to COX-1 and COX-2 (Santa Cruz Biotechnology). Control cells were treated with vehicle alone. The amount of protein was normalized by comparison to the quantity of GAPDH.

[5] = test system: HT-29 colon cancer cells; experiment: MTT assay; format: cell-based, human; conditions: 10^−7M, 96 hrs
Experimental: (§1) HT-29, SW837, SW480 and HCT116 colon cancer cells were treated for 96 hrs with either paricalcitol (10^−7M) 1,25(OH)2D3 (10^−7M) or diluant (control). Growth (% of control) was measured by MTT assay. Results represent the mean±SD of three independent experiments with triplicate dishes. […] were incubated in culture medium for 96 hr in 96 well-plates and […] of MTT solution was added.

[6] = test system: HCT116 colon cancer cells; experiment: MTT assay; format: cell-based, human; conditions: 10^−7M, 96 hrs
Experimental: as §1

[7] = test system: SW480 colon cancer cells; experiment: MTT assay; format: cell-based, human; conditions: 10^−7M, 96 hrs
Experimental: as §1

[8] = test system: SW837 colon cancer cells; experiment: MTT assay; format: cell-based, human; conditions: 10^−7M, 96 hrs
Experimental: as §1

[9] = test system: mononuclear bone marrow cells from VDR knock-out (VDR-KO) mice; experiment: Colony-forming assay in methylcellulose, VDR knock-out mice; format: cell-based; conditions: 10^−8 M
Text: In FIG. 6D, colony formation by mononuclear bone marrow cells from VDR knock-out (VDR-KO) and wild type (WT) mice is shown. Mononuclear cells were obtained from femoral bone marrow plugs and grown in methylcellulose culture media with either paricalcitol (10^−8M) or diluant. Colonies were counted on day 10 of culture. The number of total colonies (average) were 87 (control) and 66 (paricalcitol 10^−8M) in wild type mice, and 110 (control) and 122 (paricalcitol 10^−8M) in VDR-KO mice. The percentage of macrophage, granulocyte and mixed granulocyte/macrophage colonies are shown. Triplicate wells for each mouse and a total of three KO and three WT mice were studied. G, granulocyte colonies; G/M mixed granulocyte/macrophage colonies; M, macrophage colonies.
The VDR KO Mouse and Colony-Forming Assay was performed as follows. VDR KO mice were generated and genotypes were determined by Southern Blot Analysis as described previously (O'Kelly et al., supra, 2002). For experiments using VDR KO mice, their wild-type (WT) littermates were used as controls. Mice were killed by cervical neck dislocation. Bone marrow was flushed out of isolated femurs with (a-MEM; Gibco BRL, Grand Island, N.Y., USA) including 10% FCS using a 26-gauge needle. Isolated spleens were injected with DMEM (Gibco BRL) plus 10% FCS and crushed with forceps to release cells. Mononuclear cells from bone marrow or spleen were separated by Ficoll-Hypaque density centrifugation (Amersham Pharmacia, Uppsala, Sweden). Resuspended mononuclear bone marrow cells (2×10^4 cells/ml) and growth factors were added 1:10 to methylcellulose medium M3234 (StemCell Technologies Inc., Vancouver, British Columbia, Canada) to yield a final concentration of 1% methylcellulose, 30% FCS, 1% BSA, 10^-4M mercaptoethanol, and 2 mM L-glutamine as described previously (19). Cells were plated in six-well plates in a volume of 1 ml and incubated at 37° C. in a humidified atmosphere containing 5% CO2. Colonies were counted after 2 weeks. Colony type was established by morphology; and to ensure accurate determination, representative colonies were plucked from the plates, centrifuged onto slides, stained with Wright-Giemsa stain and examined by light microscopy.

For `C[C@H](/C=C/[C@H](C)C(C)(C)O)[C@H]1CC[C@H]2/C(=C/C=C3C[C@@H](O)C[C@H](O)C3)CCC[C@]12C` [paricalcitol, 19-nor-1,25, (OH)2D3], the “expression of Bcl-2 and p27^KIP1” value ([1]; 0.01 μM each, 3 days) was “down-regulated”, the “decrease of Bcl-2 protein level” value ([1]; 10^−7M, 72 hrs) was “about 40%” and the “effect on levels of Bax” value ([1]; 10^−7M, 72 hrs) was “did not affect”. For the same compound, the “effect on levels of p21WAF1” value ([1]; 10^−7M, 96 hrs) was “little effect”, the “increase of p27KIP1 expression” value ([1]; 10^−7M, 96 hrs) was “about 3 fold” and the antiproliferative effect [2] was “somewhat less than the effect on NCI-H929 cells”. For the same compound, the dose safely given [3] was “up to 16.8 mg”, the hypercalcemia ([3]; compared with 1,25(OH)2D3) was “less likely to cause hypercalcemia” and the “decrease of COX-2 expression” value [4] was 40%. The “decrease of c-myc expression” value [4] was ~40%, the “decrease of cyclin D1 expression” value [4] was “about 50%” and the “effect on COX-1 expression” value [4] was “without affecting”. For the same compound, the “increase of E-cadherin” value [4] was “about 6 fold”, the “increase of p21WAF1 protein level” value [4] was “about 5 fold” and the “increase of p27KIP1 protein level” value [4] was ~6 fold. The “growth by MTT assay” value [5] was “sensitive”, the “growth by MTT assay” value [6] was “either only slightly sensitive or resistant” and the “growth by MTT assay” value [7] was “either only slightly sensitive or resistant”. For the same compound, the “growth by MTT assay” value [8] was “sensitive”, the “number of total colonies (average)” value ([9]; VDR knock out mice, control 110) was 122 and the “percentage of granulocyte colonies” value ([9]; VDR knock-out mice, control 13±3%) was 13±4%. The “percentage of macrophage colonies” value ([9]; VDR knock-out mice, control 30±8%) was 25±5% and the “percentage of mixed colonies” value ([9]; VDR knock-out mice, control 56±10%) was 61±8%.
